# Measured values: US20240025893A1, “PYRIMIDINE-AND NITROGEN-CONTAINING BICYCLIC COMPOUND” (Asahi Kasei Pharma Corporation, priority 2020, published 2024)
# Experiments:
# [1] = target: human IRAK-4 (Homo sapiens (Human), UniProt Q9NWZ3); assay: Measurement of human IRAK-4 inhibitory activity (TR-FRET, peptide substrate phosphorylation, 10 μM ATP); type: biochemical; conditions: 1 nM IRAK-4, 10 μM ATP, 23° C., 30 minutes; average values
# Outline: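 With 1 nM IRAK-4, 0.5 μM biotinylated peptide and 10 μM ATP, compound incubated 30 min at 23 °C in 50 mM HEPES pH 7.2 with Mg2+/Mn2+. Stopped with EDTA plus europium-cryptate anti-phosphopeptide antibody and streptavidin-XL665, 60 min at 23 °C. Activity taken as the 665/620 nm TR-FRET ratio.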
# [2] = system: LPS-stimulated TNFα production in THP-1 cells; assay: LPS-stimulated TNFα production inhibition test using human acute monocytic leukemia cell strain THP-1; type: cell-based; conditions: Homo sapiens, THP-1, 4 h, LPS 2.5 ng/mL, average values
# Outline: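 THP-1 cells were preincubated with compound for 1 h at 37 °C, then stimulated with LPS (2.5 ng/mL final) for 4 h. Supernatant TNFα was quantified by HTRF (620/665 nm ratio) against a calibration curve. IC50 came from a 4-parameter logistic fit, with no-LPS set as 100% and no-compound as 0% suppression.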
# Chain of human IRAK-4 (Q9NWZ3 whole entry): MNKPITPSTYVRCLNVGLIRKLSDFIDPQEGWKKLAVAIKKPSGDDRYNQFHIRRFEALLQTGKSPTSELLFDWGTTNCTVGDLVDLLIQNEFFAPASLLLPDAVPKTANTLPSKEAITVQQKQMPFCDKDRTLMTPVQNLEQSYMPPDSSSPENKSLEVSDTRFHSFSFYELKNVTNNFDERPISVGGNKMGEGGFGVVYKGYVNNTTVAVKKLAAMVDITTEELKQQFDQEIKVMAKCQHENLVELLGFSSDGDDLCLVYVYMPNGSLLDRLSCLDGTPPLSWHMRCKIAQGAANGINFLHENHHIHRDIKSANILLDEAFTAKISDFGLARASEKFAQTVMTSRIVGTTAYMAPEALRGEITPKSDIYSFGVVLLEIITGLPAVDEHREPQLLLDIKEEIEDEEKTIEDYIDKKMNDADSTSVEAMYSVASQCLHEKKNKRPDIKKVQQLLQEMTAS
IC50 [1] [nM],IC50 [2] [nM],SMILES
3.7,110,COc1c(-c2cnc(CO[C@H]3CCC[C@@H]3O)nc2)ccc2nc(NC(=O)[C@@H]3C[C@H]3C)sc12 [c-02-01]
3.35,261,COc1c(-c2cnc(CO[C@H]3CCC[C@@H]3O)nc2)ccc2nc(NC(=O)[C@H]3C[C@H]3F)sc12 [c-02-04]
4.64,175,COc1c(-c2cnc(CO[C@H]3CCC[C@@H]3O)nc2)ccc2nc(NC(=O)[C@H]3C[C@@](C)(O)C3)sc12 [c-02-05]
2.13,194,COc1c(-c2cnc(CO[C@H]3CCC[C@@H]3O)nc2)ccc2nc(NC(=O)C3CC34CC4)sc12 (some centres unmarked) [c-02-06]
1.56,76,COc1c(-c2cnc(CO[C@H]3CCC[C@@H]3O)nc2)ccc2nc(NC(=O)C3CC(OC(C)(C)C)C3)sc12 (some centres unmarked) [c-02-07]
2.44,196,COc1c(-c2cnc(CO[C@H]3CCC[C@@H]3O)nc2)ccc2nc(NC(=O)[C@@H]3C[C@@H]3F)sc12 [c-02-08]
4.04,115,"COc1c(-c2cnc(CO[C@H]3CC(F)(F)C[C@@H]3O)nc2)ccc2nc(NC(=O)C3CC3)sc12 [c-04-01, N-(6-(2-((((1S,2S)-4,4-Difluoro-2-hydroxycyclopentyl)oxy)methyl)pyrimidin-5-yl)-7-methoxybenzo[d]thiazol-2-yl)cyclopropanecarboxamide]"
6.33,207,CCOc1c(-c2cnc(CO[C@H]3CCC[C@@H]3O)nc2)ccc2nc(NC(=O)C3CC3)sc12 [c-04-02]
12.4,184,COCCOc1c(-c2cnc(CO[C@H]3CCC[C@@H]3O)nc2)ccc2nc(NC(=O)C3CC3)sc12 [c-04-03]
5.48,233,"CN1CC(F)(COc2c(-c3cnc(CO[C@H]4CCC[C@@H]4O)nc3)ccc3nc(NC(=O)C4CC4)sc23)C1 [c-05-01, N-(7-((3-Fluoro-1-methylazetidin-3-yl)methoxy)-6-(2-((((1S,2S)-2-hydroxycyclopentyl)oxy)methyl)pyrimidin-5-yl)benzo[d]thiazol-2-yl)cyclopropanecarboxamide]"
5.45,358,"O=C(Nc1nc2ccc(-c3cnc(CO[C@H]4CCC[C@@H]4O)nc3)c(OCCO)c2s1)C1CC1 [c-06-01, N-(6-(2-((((1S,2S)-2-Hydroxycyclopentyl)oxy)methyl)pyrimidin-5-yl)-7-(2-hydroxyethoxy)benzo[d]thiazol-2-yl)cyclopropanecarboxamide]"
6.48,347,Cc1c(-c2cnc(CO[C@H]3CCC[C@@H]3O)nc2)ccc2nc(NC(=O)C3CC3)sc12 [c-07-01]
1.31,85,"C[C@@H]1C[C@H]1C(=O)Nc1nc2ccc(-c3cnc(CO[C@H]4CCC[C@@H]4O)nc3)cc2s1 [d-01-01, (1R,2R)—N-(6-(2-((((1S,2S)-2-Hydroxycyclopentyl)oxy)methyl)pyrimidin-5-yl)benzo[d]thiazol-2-yl)-2-methylcyclopropane-1-carboxamide]"

# Continued, molecule first:
SMILES,IC50 [1] [nM],IC50 [2] [nM]
C[C@H]1CN(C(=O)c2cc(F)ccn2)CCN1[C@H]1C[C@@H](C(=O)Nc2nc3ccc(-c4cnc(CO[C@H]5CCC[C@@H]5O)nc4)cc3s2)C1 [b-04-46],0.58,22
Cc1ccnc(C(=O)N2CCN([C@H]3C[C@@H](C(=O)Nc4nc5ccc(-c6cnc(CO[C@H]7CCC[C@@H]7O)nc6)cc5s4)C3)[C@@H](C)C2)c1 [b-04-47],0.54,26
C[C@H]1CN(C(=O)c2ccncc2Cl)CCN1[C@H]1C[C@@H](C(=O)Nc2nc3ccc(-c4cnc(CO[C@H]5CCC[C@@H]5O)nc4)cc3s2)C1 [b-04-48],0.52,35
"CC(=O)N1CCN([C@H]2C[C@@H](C(=O)Nc3nc4ccc(-c5cnc(CO[C@H]6CCC[C@@H]6O)nc5)cc4s3)C2)[C@@H](C)C1 [b-05-01, (1R,3s)-3-((S)-4-Acetyl-2-methylpiperazin-1-yl)-N-(6-(2-((((1S,2S)-2-hydroxycyclopentyl)oxy)methyl)pyrimidin-5-yl)benzo[d]thiazol-2-yl)cyclobutane-1-carboxamide]",1.9,48
C[C@H]1CN(C(=O)C2CC2)CCN1[C@H]1C[C@@H](C(=O)Nc2nc3ccc(-c4cnc(CO[C@H]5CCC[C@@H]5O)nc4)cc3s2)C1 [b-05-02],2.47,56
COCC(=O)N1CCN([C@H]2C[C@@H](C(=O)Nc3nc4ccc(-c5cnc(CO[C@H]6CCC[C@@H]6O)nc5)cc4s3)C2)[C@@H](C)C1 [b-05-03],1.81,50
C[C@H]1CN(C(=O)c2ccccc2)CCN1[C@H]1C[C@@H](C(=O)Nc2nc3ccc(-c4cnc(CO[C@H]5CCC[C@@H]5O)nc4)cc3s2)C1 [b-05-04],4.38,24
CCC(=O)N1CCN([C@H]2C[C@@H](C(=O)Nc3nc4ccc(-c5cnc(CO[C@H]6CCC[C@@H]6O)nc5)cc4s3)C2)[C@@H](C)C1 [b-05-05],1.95,50
CC(C)C(=O)N1CCN([C@H]2C[C@@H](C(=O)Nc3nc4ccc(-c5cnc(CO[C@H]6CCC[C@@H]6O)nc5)cc4s3)C2)[C@@H](C)C1 [b-05-06],2.25,46
C[C@H]1CN(C(=O)C2CCC2)CCN1[C@H]1C[C@@H](C(=O)Nc2nc3ccc(-c4cnc(CO[C@H]5CCC[C@@H]5O)nc4)cc3s2)C1 [b-05-07],2.51,44
C[C@H]1CN(C(=O)N2CCC2)CCN1[C@H]1C[C@@H](C(=O)Nc2nc3ccc(-c4cnc(CO[C@H]5CCC[C@@H]5O)nc4)cc3s2)C1 [b-05-09],2.13,44
C[C@H]1CN(C(=O)Nc2ccccc2)CCN1[C@H]1C[C@@H](C(=O)Nc2nc3ccc(-c4cnc(CO[C@H]5CCC[C@@H]5O)nc4)cc3s2)C1 [b-06-02],4.19,46
"C[C@H]1CN(CC(F)(F)F)CCN1C1CC(C(=O)Nc2nc3ccc(-c4cnc(CO[C@H]5CCC[C@@H]5O)nc4)cc3s2)C1 (stereo partly drawn) [b-07-01, N-(6-(2-((((1S,2S)-2-Hydroxycyclopentyl)oxy)methyl)pyrimidin-5-yl)benzo[d]thiazol-2-yl)-3-((S)-2-methyl-4-(2,2,2-trifluoroethyl)piperazin-1-yl)cyclobutane-1-carboxamide]",2.34,58
"C[C@H]1CN(C2CC2)CCN1C1CC(C(=O)Nc2nc3ccc(-c4cnc(CO[C@H]5CCC[C@@H]5O)nc4)cc3s2)C1 (stereo partly drawn) [b-08-01, 3-((S)-4-Cyclopropyl-2-methylpiperazin-1-yl)-N-(6-(2-((((1S,2S)-2-hydroxycyclopentyl)oxy)methyl)pyrimidin-5-yl)benzo[d]thiazol-2-yl)cyclobutane-1-carboxamide]",1.97,56
"COc1c(-c2cnc(CO[C@H]3CCC[C@@H]3O)nc2)ccc2nc(NC(=O)[C@H]3C[C@@H](N4CCN(C(=O)OC(C)(C)C)C[C@@H]4C)C3)sc12 [c-03-01, tert-Butyl (S)-4-((1s,3R)-3-((6-(2-((((1S,2S)-2-hydroxycyclopentyl)oxy)methyl)pyrimidin-5-yl)-7-methoxybenzo[d]thiazol-2-yl)carbamoyl)cyclobutyl)-3-methylpiperazine-1-carboxylate]",16.6,49
"COc1c(-c2cnc(CO[C@H]3CCC[C@@H]3O)nc2)ccc2nc(NC(=O)[C@H]3C[C@@H](N4CCN(C(=O)c5ccnc(C)c5)C[C@@H]4C)C3)sc12 [c-03-02, (1R,3s)-N-(6-(2-((((1S,2S)-2-Hydroxycyclopentyl)oxy)methyl)pyrimidin-5-yl)-7-methoxybenzo[d]thiazol-2-yl)-3-((S)-2-methyl-4-(2-methylisonicotinoyl)piperazin-1-yl)cyclobutane-1-carboxamide]",2.36,13
COCC(=O)N1CCN([C@H]2C[C@@H](C(=O)Nc3nc4ccc(-c5cnc(CO[C@H]6CCC[C@@H]6O)nc5)c(OC)c4s3)C2)[C@@H](C)C1 [c-03-03],2.54,230
COCCOCC(=O)N1CCN([C@H]2C[C@@H](C(=O)Nc3nc4ccc(-c5cnc(CO[C@H]6CCC[C@@H]6O)nc5)c(OC)c4s3)C2)[C@@H](C)C1 [c-03-04],2.69,320
O=C(Nc1nc2ccc(-c3cnc(CO[C@H]4CCC[C@@H]4O)nc3)c(OCc3nccs3)c2s1)C1CC1 [c-06-02],10.7,317
O=C(Nc1nc2ccc(-c3cnc(CO[C@H]4CCC[C@@H]4O)nc3)c(OC[C@H]3CCOC3)c2s1)C1CC1 [c-06-03],17.1,277
C[C@]1(O)C[C@@H](C(=O)Nc2nc3ccc(-c4cnc(CO[C@H]5CCC[C@@H]5O)nc4)cc3s2)C1 [d-01-02],2.75,165
CO[C@]1(C)C[C@H](C(=O)Nc2nc3ccc(-c4cnc(CO[C@H]5CCC[C@@H]5O)nc4)cc3s2)C1 [d-01-03],2.16,175
CC(C)(C)OC(=O)N1CC2(CC(C(=O)Nc3nc4ccc(-c5cnc(CO[C@H]6CCC[C@@H]6O)nc5)cc4s3)C2)C1 [d-01-04],6.39,178
O=C(Nc1nc2ccc(-c3cnc(CO[C@H]4CCC[C@@H]4O)nc3)cc2s1)C1CC2(CCOCC2)C1 [d-01-05],2.07,101
O=C(Nc1nc2ccc(-c3cnc(CO[C@H]4CCC[C@@H]4O)nc3)cc2s1)C1CC2(C1)CC(F)(F)C2 [d-01-06],3.62,174
O=C(Nc1nc2ccc(-c3cnc(CO[C@H]4CCC[C@@H]4O)nc3)cc2s1)C1CC2(COC2)C1 [d-01-07],1.75,184
C[C@]1(F)C[C@H](C(=O)Nc2nc3ccc(-c4cnc(CO[C@H]5CCC[C@@H]5O)nc4)cc3s2)C1 [d-01-08],2.89,202
